From patent US20220370609A1, “Polymer complex for anticancer immune therapy based on ultrasound comprising oxalate derivatives and Method of preparation thereof” (RESEARCH & BUSINESS FOUNDATION SUNGKYUNKWAN UNIVERSITY, priority 2021, published 2022)

Test system: CT26 cells
Assay: Cell death type by FITC-annexin V and PI staining
Format: cell-based
Conditions: 5 μM VPF, 2 hours, ultrasound 5 minutes
Procedure: CT26 colorectal cells were cultured in an RPMI 1640 medium containing 10% fetal bovine serum (FBS) and 1% antibiotic-antimycotic. 5×10^6 of CT26 cells were treated with Ox@PEG-VPF and the controls for 2 hours based on 5 μM VPF, and then resuspended in 1 ml of the RPMI 1640 medium, followed by ultrasound treatment for 5 minutes.
After 100 μl of the CT26 cell suspension that had been treated with ultrasound was resuspended in 900 μl of the FITC-annexin V/PI mixed solution and maintained for 30 minutes, the resulting cells were washed twice with PBS and observed by confocal microscopy.
Specifically, the Ox@ PEG-VPF of the present invention reacted with a high concentration of ROS present in cancer cells to produce CO2 in the cells, and was treated with a FITC-labeled annexin compound (FITC-annexin V; excitation/emission wavelength—490/525 nm) and propidium iodide (PI; excitation/emission wavelength 535/617 nm) to confirm whether ICD occurs by the cavitation effect and cell membrane rupture caused by ultrasound.

verteporfin [VPF]
cell death type (FITC-annexin V / PI staining): induced the apoptosis of cancer cells
